We go through four compounds from ChEMBL document CHEMBL4190181 (Medchemcomm, 2016).

The half-life is how long it takes for the measured level to halve.

Data set [1] in a line: Drug level in rat liver microsomes treated with (+/-)-7-Chloro-5-(3-furanyl)-3-methyl-3,4-dihydro-2H-1,2,4-benzothiadiazine 1,1-dioxide assessed as CYP450-mediated metabolite formation at 10 uM after 60 mins by LC-MS/MS analysis. It counts as ADME. The settings on record: 1 h. In general terms: Liver microsomes are vesicles of endoplasmic reticulum, rich in cytochrome P450 enzymes.

For a further data set, the species on record is Rattus norvegicus. Description: Positive allosteric modulation of AMPAR in Sprague-Dawley rat primary culture of cerebellar neurons assessed as potentiation of kainate-induced current at 10 uM by whole-cell patch clamp electrophysiological method relative to control. (In general: In patch-clamp work, channel activity is measured electrically.)
Data set [2] can be described thus: Half life of the compound in pH 7.4 buffer assessed as compound racemization. In kind it is physicochemical.

With `C[C@@H]1Nc2c(-c3ccoc3)cc(Cl)cc2S(=O)(=O)N1`, the Drug metabolism entry in data set [1] is on record as “Metabolite_Detected”. Further, the Activity in the data set listed under Rattus norvegicus was 2590%.
Take `C[C@H]1Nc2c(-c3ccoc3)cc(Cl)cc2S(=O)(=O)N1`: the Drug metabolism entry in data set [1] is given as “Metabolite_Detected”. Further, the Activity in the data set listed under Rattus norvegicus came out at 488%.
For `CC1Nc2c(-c3ccoc3)cc(Cl)cc2S(=O)(=O)N1` (racemic), the Activity in the data set listed under Rattus norvegicus amounted to 1600%. Besides, the half-life in data set [2] was determined as 1 h.
For `CC1Nc2ccc(Cl)cc2S(=O)(=O)N1` (configuration not stated), the Activity in the data set filed under Rattus norvegicus was determined as 8%.
